Consider 19 compounds from US4082751A, “Therapeutic agents” (priority 1976, dated 1978).

Read-outs that look alike come from different tables or passages of the source.

The conditions of data set [1]: cited from earlier work.
Data set [2] concerns reagin-mediated Passive Cutaneous Anaphylaxis (PCA) response. The data set is described as follows: Reagin-mediated rat Passive Cutaneous Anaphylaxis (PCA) screening test. It counts as in vivo, rat (Sprague-Dawley). On the procedure:
The reagin-mediated rat Passive Cutaneous Anaphylaxis (PCA) screening test used to evaluate the present compounds is generally regarded as one of the best animal models for use in predicting the antiallergy activity of test compounds in man. Briefly, the method consists of passive sensitization of skin sites on the test animals with reaginic antibodies followed after 24 hours by administration of the test drug and antigen challenge. The allergic response is measured by use of Evans'blue dye and is evaluated by the spot diameter at the injection site. Details of the test are provided below.
Ovalbumin (5 times crystalline) Dinitrobenzene sulfonic acid, Na^+ salt Bordetella pertussis vaccine - phase I 10-20 × 10 ^9 killed organisms/ml. Aluminum hydroxide gel - 10 mg./ml. Potassium carbonate Male Sprague-Dawley (S/D) Rats - 200 gms. Female Sprague-Dawley Rats - 100 gms. Tris Buffered Saline (TBS) - 0.02 M 2-amino-2-hydroxymethyl-1,3-propanediol (Tris), 0.15 M NaCL, pH 8.2
A substituted ovalbumin antigen is used both as immunogen and challenging antigen. The antigen is prepared as follows: 500 mg. ovalbumin (EA) and 500 mg. K2 CO3 are dissolved in 25 ml. distilled H2 O and stirred at room temperature for 5 minutes. Five hundred (500)mg. dinitrobenzene sulfonic acid, Na^+ salt, (previously recrystallized from hot absolute ethanol) is then added slowly with continued stirring. The reaction mixture is then immediately placed in the dark and allowed to proceed for 2 hours with constant stirring. After 2 hours the mixture is placed in suitable dialysis tubing and dialyzed against 5 changes (4 liters each) of distilled H2 O at 5° C. After dialysis the product is lyophilized and stored at room temperature in a brown or amber container. The antigen obtained will appear as a light yellow, amorphous solid which is very soluble in water or saline. It is designated as DNP denatured ovalbumin (DNP-d EA).
Adult, male Sprague-Dawley rats are used as a source of reagin-rich antisera for the PCA model. Immunization is by a combinatin of DNP-d EA on Al(OH) 3 gel and B. pertussis vaccine. Preparation of the DNP-d EA - gel immunogen is as follows: Dissolve the DNP-d EA in TBS so as to give a concentration of 10 mg./ml. Slowly add 1 ml. of this solution to 10 ml. Al(OH) 3 gel (10 mg. solids/ml.) with constant stirring at room temperature. Stir the mixture an additional 30 minutes to insure a uniform adsorption of antigen on gel.
The resulting preparation is then used in combination with phase I B. pertussis vaccine to immunize male S/D rats as follows: For each rat administer 0.1 ml. DNP-d EA - gel suspension intramuscularly in each hind leg (200 μg DNP-d EA and 2 mg. gel total dose). Follow these injections by the intraperitoneal administration of 1.0 ml. B. pertussis vaccine (10-20 × 10 ^9 organisms). The use of light ether anesthesia during this procedure is recommended to insure proper intramuscular and intraperitoneal injections. 9 days following immunization (but no longer than 10) the animals are exsanguinated by cardiac puncture or abdominal aorta cannulation under ether or pentobarbital anesthesia. The collected whole blood is allowed to clot, the serum separated by centrifugation and the individual serum samples stored frozen until assayed for IgE content.
Individual serum samples should be screened for reaginic antibody concentration before being pooled with other sera, as not all rats respond to immunization procedures with reagin production. At 1:50 saline dilution of serum from each immunized rat is used for this purpose. Intradermal injections of 0.05 ml. of the diluted sera are made in the shaven backs of two small female recipient rats, 100-120 gms. Several serum samples can be tested simultaneously in recipient animals. After a 24 to 48 hour latent period antigen challenge is accomplished by intravenous administration to each rat of 1 mg. DNP-d EA in 0.5 ml. 0.5% Evans' blue dye in saline. […]

Data set [3] concerns release of mediators, e.g. histamine and SRS-A. The conditions noted are these: administered to asthmatic patients prior to inhalation of specific antigens; cited from earlier work.
The conditions of data set [4]: must be administered by inhalation; cited from earlier work.
Data set [5] can be described thus: water solubility of salts. It is filed as physicochemical. The following applies: salts of 2-(2-n-propoxyphenyl)-5-(5-1H-tetrazolyl)-pyrimidin-4(3H)-one.
Setting [6] is: po, 10 min before antigen challenge, read-out: ID50, the dose of compound that inhibits 50% of the response, p.o.
Setting [7] is: iv, test compounds 1-5 min before antigen challenge, DSCG at time of challenge, read-out: ID50, the dose of compound that inhibits 50% of the response, iv.
The mark [8] stands for this setting: bronchodilators, bronchial asthma.

As for `Cn1c(=O)c2[nH]cnc2n(C)c1=O` [theophylline], the undesirable side effects entry in data set [1] (in vivo) is “cardiac stimulation and gastrointestinal distress”.

On to `CCCOc1ccc(N)cc1-c1ncc(-c2nnn[nH]2)c(=O)[nH]1` [Example 15, 2-(5-Amino-2-n-propoxyphenyl)-5-(5-1H-tetrazolyl)pyrimidin-4(3H)-one], for which the ED50 in data set [2] (setting [6]) is ~0.1 mg/kg.

In the case of `CCC(C)Oc1ccccc1-c1ncc(-c2nnn[nH]2)c(=O)[nH]1` (racemic) [Example 5, (±)-2-(2-sec-Butoxyphenyl)-5-(5-1H-tetrazolyl)pyrimidin-4(3H)-one], the ED50 in data set [2] (setting [6]) came out at 0.05 mg/kg.

For `CC(C)Oc1ccccc1-c1ncc(-c2nnn[nH]2)c(=O)[nH]1` [Example 3, 2-(2-Isopropoxyphenyl)-5-(5-1H-tetrazolyl)pyrimidin-4(3H)-one], the ED50 in data set [2] (setting [6]) is ~0.04 mg/kg.

Turning to `CCOc1ccccc1-c1ncc(-c2nnn[nH]2)c(=O)[nH]1` [Example 1, 2-(2-Ethoxyphenyl)-5-(5-1H-tetrazolyl)pyrimidin-4-(3H)-one], the values for the ED50 in data set [2] (setting [7]) and in data set [2] (setting [6]) were 0.02 mg/kg and 0.09 mg/kg, respectively.

Turning to `CCCCOc1ccccc1-c1ncc(-c2nnn[nH]2)c(=O)[nH]1` [Example 4, 2-(2-n-Butoxyphenyl)-5-(5-1H-tetrazolyl)pyrimidin-4(3H)-one], the ED50 in data set [2] (setting [6]) was ~0.07 mg/kg.

Consider `CCCOc1ccccc1-c1ncc(-c2nnn[nH]2)c(=O)[nH]1` [Example 2, 2-(2-n-Propoxyphenyl)-5-(5-1H-tetrazolyl)pyrimidin-4(3H)-one], for which the ED50 in data set [2] (setting [6]) worked out at 0.04 mg/kg.

As for `O=C(O)c1cc(=O)c2c(OCC(O)COc3cccc4oc(C(=O)O)cc(=O)c34)cccc2o1` [DSCG, disodium cromoglycate], the cardiovascular side effects entry in data set [1] (in vivo) is given as “without cardiovascular side effects”. In addition, the “inhibition of release of mediators” value in data set [3] is “inhibits the release of mediators”. The ED50 is 0.3 mg/kg in data set [2] (setting [7]) and > 30 mg/kg in data set [2] (setting [6]). The oral absorption result in data set [4] is listed as “not orally absorbed”.

For the compound `O=c1[nH]c(-c2ccccc2OCC2CC2)ncc1-c1nnn[nH]1` [Example 9, 2-(2-Cyclopropylmethoxyphenyl)-5-(5-1H-tetrazolyl)pyrimidin-4(3H)-one], the ED50 in data set [2] (setting [6]) stood at 0.07 mg/kg.

For `CC(C)NCC(O)c1ccc(O)c(O)c1` (stereo not drawn) [isoproterenol], the undesirable side effects entry in data set [1] (setting [8]) was “cardiac stimulation and gastrointestinal distress”.

With `CC(C)COc1ccccc1-c1ncc(-c2nnn[nH]2)c(=O)[nH]1` [Example 7, 2-(2-Isobutoxyphenyl)-5-(5-1H-tetrazolyl)pyrimidin-4(3H)-one], the ED50 in data set [2] (setting [6]) was ~0.1 mg/kg.

In the case of `COc1ccccc1-c1ncc(-c2nnn[nH]2)c(=O)[nH]1` [Example 6, 2-(2-Methoxyphenyl)-5-(5-1H-tetrazolyl)pyrimidin-4(3H)-one], the ED50 in data set [2] (setting [6]) is ~0.1 mg/kg.

Regarding `CCCOc1ccc(N(C)C)cc1-c1ncc(-c2nnn[nH]2)c(=O)[nH]1` [Example 16, 2-(5-Dimethylamino-2-n-propoxyphenyl)-5-(5-1H-tetrazolyl)pyrimidin-4(3H)-on], the ED50 in data set [2] (setting [6]) is ~0.4 mg/kg.

As for `CCCOc1ccccc1-c1ncc(-c2nnn[nH]2)c(=O)[nH]1` [diethanolamine, 2-(2-n-propoxyphenyl)-5-(5-1H-tetrazolyl)-pyrimidin-4(3H)-one], the water solubility entry in data set [5] is “water soluble”.

For `CCCOc1ccc([N+](=O)[O-])cc1-c1ncc(-c2nnn[nH]2)c(=O)[nH]1` [Example 14, 2-(5-Nitro-2-n-propoxyphenyl)-5-(5-1H tetrazolyl)pyrimidin-4(3H)-one], the ED50 in data set [2] (setting [6]) stood at 5 mg/kg.

As for `C=CCOc1ccccc1-c1ncc(-c2nnn[nH]2)c(=O)[nH]1` [Example 8, 2-(2-Allyloxyphenyl)-5-(5-1H-tetrazolyl)pyrimidin-4(3H)-one], in data set [2] (setting [6]), the ED50 is 0.24 mg/kg.

On to `CN1[C@@H]2CC[C@H]1C[C@@H](OC(=O)C(CO)c1ccccc1)C2` (stereo partly drawn) [atropine], for which, in data set [1] (setting [8]), the undesirable side effects entry is “cardiac stimulation and gastrointestinal distress”.

As to `CCCOc1ccc(OC)cc1-c1ncc(-c2nnn[nH]2)c(=O)[nH]1` [Example 10, 2-(5-Methoxy-2-n-propoxyphenyl)-5-(5-1H-tetrazolyl)pyrimidin-4(3H)-one], the ED50 in data set [2] (setting [6]) was 0.03 mg/kg.

As to `CNC[C@H](O)c1ccc(O)c(O)c1` [epinephrine], the undesirable side effects entry in data set [1] (setting [8]) is “cardiac stimulation and gastrointestinal distress”.
